EC50 data for 20 compounds are collected here from patent publication US9193720B2, “Pyridin-3-yl acetic acid derivatives as inhibitors of human immunodeficiency virus replication” (priority 2014, dated 2015).

In the assay the test system is NL-RLuc virus. Nature of the assay: Inhibition of HIV Replication (NL-RLuc luciferase reporter virus in MT-2 cells). The assay is classed as cell-based. As to conditions: Human immunodeficiency virus 1, MT2, 120 h. An excerpt: Inhibition of HIV Replication:
A recombinant NL-RLuc proviral clone was constructed in which a section of the nef gene from NL4-3 was replaced with the Renilla Luciferase gene. This virus is fully infectious and can undergo multiple cycles of replication in cell culture. In addition, the luciferous reporter provides a simple and easy method for quantitating the extent of virus growth and consequently, the antiviral activity of test compounds. The plasmid pNLRLuc contains the proviral NL-Rluc DNA cloned into pUC18 at the PvuII site. The NL-RLuc virus was prepared by transfection of 293T cells with the plasmid pNLRLuc. Transfections were performed using the LipofectAMINE PLUS kit from Invitrogen (Carlsbad, Calif.) according to the manufacturer and the virus generated was titered in MT-2 cells. For susceptibility analyses, the titrated virus was used to infect MT-2 cells in the presence of compound, and after 5 days of incubation, cells were processed and quantitated for virus growth by the amount of expressed luciferase. Assay media was RPMI 1640 supplemented with 10% heat inactivated fetal bovine serum (FBS), 100 units/ml penicillin G/100 units/ml streptomycin, 10 mM HEPES buffer pH 7.55 and 2 mM L-glutamine. The results from at least 2 experiments were used to calculate the EC50 values. Luciferase was quantitated using the Dual Luciferase kit from Promega (Madison, Wis.). Susceptibility of viruses to compounds was determined by incubation in the presence of serial dilutions of the compound. The 50% effective concentration (EC50) was calculated by using the exponential form of the median effect equation where (Fa)=1/[1+(ED50/drug conc.)^m] (Johnson V A, Byington R T. Infectivity Assay. In Techniques in HIV Research. ed. Aldovini A, Walker B D. 71-76. New York: Stockton Press. 1990).

One may read the EC50 as the concentration giving half of the maximal effect. Low readings indicate a more potent agent, high ones a less potent agent. As for `COC1(C)CCN(c2c(-c3ccc(OCCc4ccc(F)cc4)cc3)c(C)nc(C)c2[C@H](OC(C)(C)C)C(=O)O)CC1` [Example 77, (S)-2-(tert-butoxy)-2-(5-(4-(4-fluorophenethoxy)phenyl)-4-(4-methoxy-4-methylpiperidin-1-yl)-2,6-dimethylpyridin-3-yl)acetic acid], it took 2 nM to reach a half-maximal effect (EC50).

Compound `Cc1nc(-c2ccccc2)sc1COc1ccc(-c2c(C)nc(C)c([C@H](OC(C)(C)C)C(=O)O)c2N2CCC(C)(C)CC2)cc1` [Example 45, (S)-2-(tert-butoxy)-2-(4-(4,4-dimethylpiperidin-1-yl)-2,6-dimethyl-5-(4-((4-methyl-2-phenylthiazol-5-yl)methoxy)phenyl)pyridin-3-yl)acetic acid] gave an EC50 of 29 nM. This EC50 lies about 14-fold higher than the previous one.

`Cc1nc(C)c([C@H](OC(C)(C)C)C(=O)O)c(N2CCC(C)(C)CC2)c1-c1ccc(OCCc2ccc(F)cc2F)cc1` [Example 23, (S)-2-(tert-butoxy)-2-(5-(4-(2,4-difluorophenethoxy)phenyl)-4-(4,4-dimethylpiperidin-1-yl)-2,6-dimethylpyridin-3-yl)acetic acid] yielded an EC50 of 5 nM.

With `Cc1nc(C)c([C@H](OC(C)(C)C)C(=O)O)c(N2CCC(C)(C)CC2)c1-c1ccc(OCCc2ccc3ccccc3c2)cc1` [Example 30, (S)-2-(tert-butoxy)-2-(4-(4,4-dimethylpiperidin-1-yl)-2,6-dimethyl-5-(4-(2-(naphthalen-2-yl)ethoxy)phenyl)pyridin-3-yl)acetic acid], a half-maximal response (EC50) required 6 nM.

The compound `Cc1nc(C)c([C@H](OC(C)(C)C)C(=O)O)c(N2CCC(C)(C)CC2)c1-c1ccc(OCCCc2ccc(F)cc2)cc1` [Example 13, (S)-2-(tert-butoxy)-2-(4-(4,4-dimethylpiperidin-1-yl)-5-(4-(3-(4-fluorophenyl)propoxy)phenyl)-2,6-dimethylpyridin-3-yl)acetic acid] registered an EC50 of 12 nM.

Take `Cc1nc(C)c([C@H](OC(C)(C)C)C(=O)O)c(N2CCC(C)(F)CC2)c1-c1ccc(OCCc2ccc(F)cc2)cc1` [Example 81, (S)-2-(tert-butoxy)-2-(4-(4-fluoro-4-methylpiperidin-1-yl)-5-(4-(4-fluorophenethoxy)phenyl)-2,6-dimethylpyridin-3-yl)acetic acid]: a half-maximal effect (EC50) was put at 4 nM.

On to `Cc1nc(C)c([C@H](OC(C)(C)C)C(=O)O)c(N2CCC(C)(C)CC2)c1-c1ccc(Oc2ccccc2)cc1` [Example 1, (S)-2-(tert-butoxy)-2-(4-(4,4-dimethylpiperidin-1-yl)-2,6-dimethyl-5-(4-phenoxyphenyl)pyridin-3-yl)acetic acid], for which the EC50 was 37 nM.

For the compound `Cc1ccc(CCOc2ccc(-c3c(C)nc(C)c([C@H](OC(C)(C)C)C(=O)O)c3N3CCC(C)(C)CC3)cc2)s1` [Example 52, (S)-2-(tert-butoxy)-2-(4-(4,4-dimethylpiperidin-1-yl)-2,6-dimethyl-5-(4-(2-(5-methylthiophen-2-yl)ethoxy)phenyl)pyridin-3-yl)acetic acid], the EC50 turned out to be 5 nM.

On to `Cc1nc(CCOc2ccc(-c3c(C)nc(C)c([C@H](OC(C)(C)C)C(=O)O)c3N3CCC(C)(C)CC3)cc2)cs1` [Example 42, (S)-2-(tert-butoxy)-2-(4-(4,4-dimethylpiperidin-1-yl)-2,6-dimethyl-5-(4-(2-(2-methylthiazol-4-yl)ethoxy)phenyl)pyridin-3-yl)acetic acid], for which the EC50 came out at 4 nM.

Regarding `Cc1nc(C)c([C@H](OC(C)(C)C)C(=O)O)c(N2CCC(C)(C)CC2)c1-c1ccc(OCCc2ccc(Cl)cc2)cc1` [Example 26, (S)-2-(tert-butoxy)-2-(5-(4-(4-chlorophenethoxy)phenyl)-4-(4,4-dimethylpiperidin-1-yl)-2,6-dimethylpyridin-3-yl)acetic acid], the EC50 came to 17 nM.

`Cc1nc(C)c([C@H](OC(C)(C)C)C(=O)O)c(N2CCC(C)(C)CC2)c1-c1ccc(OCC(C)c2ccc(F)cc2)cc1` (stereo partly drawn) [Example 32, (2S)-2-(tert-butoxy)-2-(4-(4,4-dimethylpiperidin-1-yl)-5-(4-(2-(4-fluorophenyl)propoxy)phenyl)-2,6-dimethylpyridin-3-yl)acetic acid]: the EC50 came out at 11 nM. This EC50 is about 1.5-fold lower than that of the compound before.

For the compound `Cc1nc(C)c([C@H](OC(C)(C)C)C(=O)O)c(N2CCC(C)(C)CC2)c1-c1ccc(OCc2ccccc2)nc1` [Example 3, (S)-2-(6′-(benzyloxy)-4-(4,4-dimethylpiperidin-1-yl)-2,6-dimethyl-[3,3′-bipyridin]-5-yl)-2-(tert-butoxy)acetic acid], the EC50 came to 20 nM.

As to `Cc1nc(C)c(COc2ccc(-c3c(C)nc(C)c([C@H](OC(C)(C)C)C(=O)O)c3N3CCC(C)(C)CC3)cc2)s1` [Example 44, (S)-2-(tert-butoxy)-2-(4-(4,4-dimethylpiperidin-1-yl)-5-(4-((2,4-dimethylthiazol-5-yl)methoxy)phenyl)-2,6-dimethylpyridin-3-yl)acetic acid], the EC50 was determined as 12 nM.

`Cc1n[nH]c(C)c1CCOc1ccc(-c2c(C)nc(C)c([C@H](OC(C)(C)C)C(=O)O)c2N2CCC(C)(C)CC2)cc1` [Example 54, (S)-2-(tert-butoxy)-2-(5-(4-(2-(3,5-dimethyl-1H-pyrazol-4-yl)ethoxy)phenyl)-4-(4,4-dimethylpiperidin-1-yl)-2,6-dimethylpyridin-3-yl)acetic acid]: the EC50 worked out at 8 nM. Compared with the last compound, the EC50 is about 1.5-fold lower.

`Cc1nc(C)c([C@H](OC(C)(C)C)C(=O)O)c(N2CC(C(C)C)C2)c1-c1ccc(OCCc2ccc(F)cc2)cc1` [Example 71, (S)-2-(tert-butoxy)-2-(5-(4-(4-fluoro-phenethoxy)phenyl)-4-(3-isopropylazetidin-1-yl)-2,6-dimethylpyridin-3-yl)acetic acid]: the EC50 was found to be 3190 nM.

In the case of `Cc1nc(C)c([C@H](OC(C)(C)C)C(=O)O)c(N2CCC(C)(C)CC2)c1-c1ccc(OCCc2ccc(F)c(F)c2)cc1` [Example 24, (S)-2-(tert-butoxy)-2-(5-(4-(3,4-difluorophenethoxy)phenyl)-4-(4,4-dimethylpiperidin-1-yl)-2,6-dimethylpyridin-3-yl)acetic acid], a half-maximal effect (EC50) was put at 3 nM.

On to `CCCOc1ccc(-c2c(C)nc(C)c([C@H](OC(C)(C)C)C(=O)O)c2N2CCC(C)(C)CC2)cc1F` [Example 59, (S)-2-(tert-butoxy)-2-(4-(4,4-dimethylpiperidin-1-yl)-5-(3-fluoro-4-propoxyphenyl)-2,6-dimethylpyridin-3-yl)acetic acid], for which the EC50 was determined as 21 nM.

For `Cc1nc(C)c([C@H](OC(C)(C)C)C(=O)O)c(N2CCC(C)(C)CC2)c1-c1ccc(O)cc1` [Example 16, (S)-2-(tert-Butoxy)-2-(4-(4,4-dimethylpiperidin-1-yl)-5-(4-hydroxyphenyl)-2,6-dimethylpyridin-3-yl)acetic acid], the EC50 turned out to be 172 nM. This EC50 lies about 8.2-fold higher than the previous one.

`COc1ccc(COc2ccc(-c3c(C)nc(C)c([C@H](OC(C)(C)C)C(=O)O)c3N3CCC(C)(C)CC3)cc2)cc1` [Example 8, (S)-2-(tert-butoxy)-2-(4-(4,4-dimethylpiperidin-1-yl)-5-(4-((4-methoxybenzyl)oxy)phenyl)-2,6-dimethylpyridin-3-yl)acetic acid] displayed an EC50 of 11 nM.

Consider `Cc1nc(C)c([C@H](OC(C)(C)C)C(=O)O)c(N2CCC(C)(C)CC2)c1-c1ccc(OCCc2ccncc2)cc1` [Example 37, (S)-2-(tert-butoxy)-2-(4-(4,4-dimethylpiperidin-1-yl)-2,6-dimethyl-5-(4-(2-(pyridin-4-yl)ethoxy)phenyl)pyridin-3-yl)acetic acid], for which the EC50 was 1 nM. Compared with the last compound, the EC50 is about 11-fold lower.
